The record followed here is PubChem BioAssay AID1996.

Each structure is given as a SMILES string. Converted amounts (≈) assume the structure as drawn.

For this data set the following is noted: buffer; pH 7.4; 200.0 µM.
`CNc1ccc(C(=O)OCC(=O)NC(=O)NC2CCCCC2)cc1[N+](=O)[O-]` registered a solubility (kinetic) of 1.7 µg/mL (≈ 4.49 µM). Under `O=Cc1c(NCc2ccccc2Cl)c2ccccc2[nH]c1=O` stands 17.7 µg/mL (≈ 56.6 µM); under `CC1CN(C(=S)NC2CCCC2)CC(C)O1` (configuration not stated), > 36.4 µg/mL. The same measure for `Cc1ccc(NC(=O)CCN2CCC(C(N)=O)CC2)cc1`: > 43.4 µg/mL. The same measure for `O=c1[nH]n2cc(-n3cc([N+](=O)[O-])cn3)cnc2c1Br`: > 48.8 µg/mL; for `O=C(O)COc1ccc(S(=O)(=O)N2CCCC2)cc1`: > 42.8 µg/mL; for `COc1ccc2nc(NC(=O)c3ccccc3C(=O)O)sc2c1`: > 49.3 µg/mL. Consider `CN1CCC(NC(=O)NC2CCCCC2)CC1`, for which the solubility (kinetic) was > 35.9 µg/mL.

Molecule `O=c1nc(SCc2ccc(Cl)cc2)nc(-c2ccccc2)[nH]1` yielded a kinetic solubility of 4.5 µg/mL (≈ 13.6 µM). The same measure for `CC1CN(C(=O)COC(=O)c2ccc(Cl)c(N)c2)CC(C)O1` (configuration not stated): > 49 µg/mL. Under `O=C(Nc1ccccc1O)c1ccc2c(c1)C(=O)N(c1ccccc1)C2=O` stands < 0.4 µg/mL; under `CS(=O)(=O)Nc1ccc2c(c1)ncn2CCc1ccccc1`, > 47.3 µg/mL; under `COc1ccc(-n2ccc(=O)c(C(=O)O)n2)cc1`, > 36.9 µg/mL.

In turn, `CCN(CC)c1ccc(C(=S)NC2CCCCC2)cc1` showed a solubility (kinetic) of 2 µg/mL (≈ 6.89 µM). Take `NC(=S)NC1CC2C=CC1C2` (configuration not stated): the solubility (kinetic) was > 25.2 µg/mL. `CC(NC(=O)c1ccc([N+](=O)[O-])cc1Cl)C1CC2CCC1C2` (configuration not stated) gave a solubility (kinetic) of 28 µg/mL (≈ 86.7 µM). Under `COc1ccc(-n2ccc(=O)c(C(=O)O)n2)c(OC)c1` stands > 41.4 µg/mL. The same measure for `OC(CN1CCCCC1)Cn1c2ccccc2c2ccccc21` (configuration not stated): 45.1 µg/mL (≈ 146 µM); for `CNc1ccc(Oc2c(F)c(F)nc(F)c2F)cc1`: 6 µg/mL (≈ 22 µM); for `CCN1CC(CN(C)Cc2nc(-c3ccco3)oc2C)CC1=O` (configuration not stated): > 47.6 µg/mL.

In the case of `Fc1ccc(SCCc2ccccn2)cc1`, the solubility (kinetic) turned out to be 7.1 µg/mL (≈ 30.4 µM).

As for `Cc1cccc2cc(CN(Cc3ccco3)C(=O)c3ccco3)c(=O)[nH]c12`, the solubility (kinetic) was 0.8 µg/mL (≈ 2.21 µM). Under `COc1cc(OC)cc(C(=O)NCC(=O)OC2CCCCC2=O)c1` (configuration not stated) stands > 50.3 µg/mL; under `c1ccc(-c2nc(NC3CCCC3)c3ccccc3n2)cc1`, 3.1 µg/mL (≈ 10.7 µM). The same measure for `Cc1c(C)n(C)c2ccc(C(=O)NCCc3ccco3)cc12`: > 44.5 µg/mL; for `O=C(Cc1ccc(Br)cc1)Nc1ncc([N+](=O)[O-])s1`: 7.8 µg/mL (≈ 22.8 µM). The same measure for `O=C(Nc1ccncc1)c1ccc(N2CCCC2=O)cc1`: > 42.2 µg/mL.

The molecule `OCCNc1nc(-c2ccccc2)c2cc(Br)ccc2n1` yielded a solubility (kinetic) of 24.2 µg/mL (≈ 70.3 µM). The same measure for `COc1ccccc1-c1nc(COc2ccc(Cl)cc2Cl)no1`: < 0.4 µg/mL; for `NC(=S)Nc1cccc(-c2n[nH]c(=S)o2)c1`: > 37.8 µg/mL.

Consider `Cc1ccccc1-n1c(-c2ccoc2)nc2ccccc2c1=O`, for which the solubility (kinetic) is > 45.3 µg/mL.

`Cc1cc(C(=O)OCC(=O)Nc2nccs2)c2ccccc2n1`: the solubility (kinetic) was 6.8 µg/mL (≈ 20.8 µM).

Regarding `CC(=O)Nc1ccc(S(=O)(=O)Nc2cc(Cl)ccc2N2CCOCC2)cc1`, the kinetic solubility is > 61.5 µg/mL. The same measure for `CCOc1ccc(-n2ccc(=O)c(C(=O)O)n2)cc1`: > 39 µg/mL; for `COc1ccc(-n2c(SCC(=O)N(C)C3CCS(=O)(=O)C3)nc3ccc(O)cc3c2=O)cc1OC` (configuration not stated): 35.3 µg/mL (≈ 67.9 µM); for `O=C(NC1CC1)c1c(O)c2ccccc2[nH]c1=O`: 2.8 µg/mL (≈ 11.5 µM).

For `CC(=O)c1ccc(NC(=O)CCc2ccc(C)o2)cc1`, the solubility (kinetic) came to 36.7 µg/mL (≈ 135 µM).

Take `COc1ccc(S(=O)(=O)N2CCCCC2)cc1NC(=O)CCNC(=O)c1ccc(Cl)cc1`: the kinetic solubility was found to be 4.3 µg/mL (≈ 8.96 µM). The same measure for `Nc1cc(=O)[nH]c(SCc2cccc3ccccc23)n1`: 4 µg/mL (≈ 14.1 µM). For the molecule `O=C(Nc1ccc2c(c1)OCCO2)c1ccccc1`, the solubility (kinetic) is > 38.3 µg/mL.

`CC(C)(C)c1ccc(/C=C/C(=O)NC2CCS(=O)(=O)C2)cc1` (configuration not stated): the solubility (kinetic) is > 48.2 µg/mL. Under `COc1ccc(C(=O)Nc2ccc3[nH]ccc3c2)cc1` stands > 39.9 µg/mL; under `Cc1ccc(C(=O)Nc2ccccc2C(=O)Nc2ccccn2)cc1Cl`, < 0.3 µg/mL. Molecule `O=C(COc1ccc(S(=O)(=O)N2CCOCC2)cc1)Nc1ccc(Br)cc1` showed a solubility (kinetic) of 5.4 µg/mL (≈ 11.9 µM).

With `Cc1ccc(C(C)C)c(OCC#CCN2CCCC2)c1.O=C(O)C(=O)O`, the kinetic solubility is 25.7 µg/mL. Under `COc1ccc(-c2nnc(SCC(=O)Nc3c(Cl)cc(Cl)cc3C(=O)O)o2)cc1` stands > 68.1 µg/mL; under `CN(CC(=O)Nc1ccccc1Cl)C(=O)COC(=O)c1ccc([N+](=O)[O-])s1`, > 61.8 µg/mL; under `CC(OC(=O)c1ccccc1O)C(=O)Nc1cccc(Cl)c1` (configuration not stated), 2 µg/mL (≈ 6.26 µM).

Consider `CC1CCN(c2nc3c(cc2C#N)COC(C)(C)C3)CC1`, for which the kinetic solubility came to 16 µg/mL (≈ 56.1 µM).

As to `CNC(=O)c1cccc2nc3ccccc3nc12`, the kinetic solubility is > 35.6 µg/mL. The same measure for `Cc1ccc(C2=NOC(=O)/C2=C\c2ccccc2)cc1`: 33.7 µg/mL (≈ 128 µM). With `CCOC(=O)c1cnc2c(ccc3ccccc32)c1NCCN(C)C`, the kinetic solubility was 36.3 µg/mL (≈ 108 µM).

Regarding `CC1Cc2ccccc2N1C(=O)C1CC(=O)N(c2ccccc2)C1` (configuration not stated), the kinetic solubility came to 44.9 µg/mL (≈ 140 µM).

For the molecule `Cc1ccc(N=C(N)N=C(N)N)cc1`, the kinetic solubility is > 28.7 µg/mL. Take `O=C(/C=C/c1cccs1)NC1CCCC1`: the kinetic solubility is > 33.2 µg/mL. Under `O=S(=O)(Nc1ccccc1Cl)c1ccc(-c2ccccn2)s1` stands 35.8 µg/mL (≈ 102 µM).

`COc1ccc(N2CCN(C(=O)c3ccccc3F)CC2)c([N+](=O)[O-])c1` returned a kinetic solubility of 40.7 µg/mL (≈ 113 µM).

`Cc1nnc(Nc2ccccc2F)s1`: the kinetic solubility was > 31.4 µg/mL. The same measure for `Nc1nc2ccc(C(=O)NCCOC(=O)C3CCCCC3)cc2s1`: 12.8 µg/mL (≈ 36.8 µM). The same measure for `CC(NC(=O)NC(=O)c1cccc(Cl)c1)c1ccccc1` (configuration not stated): 0.9 µg/mL (≈ 2.97 µM).

Consider `Cc1ccc(OCCNC(=O)c2ccc(C)o2)cc1`, for which the solubility (kinetic) is > 38.9 µg/mL. Take `Nc1cc(N)nc(SCC(=O)NCc2ccc3c(c2)OCO3)n1`: the solubility (kinetic) is > 50 µg/mL. Under `COc1ccc(CCNC(=O)Nc2ccc3c(c2)OCO3)cc1OC` stands 5.3 µg/mL (≈ 15.4 µM); under `O=C1NC(=O)N(Cc2ccc(F)cc2)C(=O)/C1=C\C=C\c1ccco1`, 10 µg/mL (≈ 29.4 µM); under `COc1ccc(CSC2=CS(=O)(=O)c3ccccc3N2)cc1`, 9.8 µg/mL (≈ 29.4 µM).

For the molecule `CC(C)[C@H](NS(=O)(=O)c1ccccc1)C(=O)Nc1ccccc1N1CCOCC1`, the solubility (kinetic) was determined as 52.1 µg/mL (≈ 125 µM). The same measure for `CCCC(C(=O)Nc1ccncc1)c1ccccc1` (configuration not stated): > 38.1 µg/mL; for `CCOc1ccc2c(c1)nc(C)n2C`: > 28.5 µg/mL; for `O=C(COC(=O)CC1CC2CCC1C2)Nc1ccccc1Cl` (configuration not stated): 12.9 µg/mL (≈ 40.1 µM).

Turning to `Cc1ccc(-c2cc(C(=O)NCC3CCCO3)c3ccccc3n2)cc1C` (configuration not stated), the kinetic solubility amounted to 4.7 µg/mL (≈ 13 µM).

As to `Cn1c(N)c(C(C[N+](=O)[O-])c2c(F)cccc2Cl)c(=O)n(C)c1=O` (configuration not stated), the solubility (kinetic) is > 53.5 µg/mL.

On to `CNC(=O)c1cnc(-c2ccccc2)nc1-c1ccccc1`, for which the kinetic solubility is 14.8 µg/mL (≈ 51.2 µM). The same measure for `CC(C)(C)NC(=O)COC(=O)CCC(=O)c1cccs1`: > 44.6 µg/mL; for `Cc1cc(N2CCCC2)nc2c(C)cccc12`: 7.2 µg/mL (≈ 31.8 µM). The same measure for `O=C(Nc1ccc(N2CCCCC2)cc1)c1ccc([N+](=O)[O-])o1`: 6.9 µg/mL (≈ 21.9 µM); for `CC1CCCN(S(=O)(=O)c2cccc([N+](=O)[O-])c2)C1` (configuration not stated): 13.3 µg/mL (≈ 46.8 µM); for `COc1ccc(Br)c(C(=O)OCC(=O)NC(=O)NC2CCCC2)c1`: 19.5 µg/mL (≈ 48.8 µM).

`CCCC(=O)Nc1sc(Cc2ccccc2)c(C)c1C(N)=O` returned a kinetic solubility of 6.9 µg/mL (≈ 21.8 µM). `Cc1ccc(CN(C)CC(=O)Nc2ccc3c(c2)CCC3)cc1`: the solubility (kinetic) amounted to 5.4 µg/mL (≈ 17.5 µM).

`Cc1ccccc1S(=O)(=O)/N=C(/Nc1nc2ccccc2s1)c1ccccc1` displayed a kinetic solubility of 1.1 µg/mL (≈ 2.7 µM). `Cc1ccc(CCS(=O)(=O)c2ccc(C(C)(C)C)cc2)cn1`: the solubility (kinetic) was > 47.6 µg/mL. The same measure for `O=C(O)COCC(=O)NCc1csc2ccccc12`: 38.9 µg/mL (≈ 139 µM).

Turning to `CCOP(=O)(c1ccccc1)C(O)c1ccc([N+](=O)[O-])cc1` (configuration not stated), the solubility (kinetic) was > 48.2 µg/mL. With `CCOC(=O)c1c(NC(=O)CNC2CCCCC2)sc(C)c1C`, the solubility (kinetic) was < 0.4 µg/mL. Under `COc1cccc(/C=C/C(=O)OCC(=O)NCCC2=CCCCC2)c1OC` stands 6.9 µg/mL (≈ 18.5 µM); under `COc1ccc(CC2SC(=Nc3ccc(F)cc3)NC2=O)cc1` (configuration not stated), 2.3 µg/mL (≈ 6.96 µM); under `COc1ccccc1NC(=O)Nc1cccc(C)n1`, 0.4 µg/mL (≈ 1.55 µM). The same measure for `O=C(c1cc(S(=O)(=O)N2CCOCC2)c(Cl)cc1Cl)N1CCN(S(=O)(=O)c2cccc(F)c2)CC1`: 20.8 µg/mL (≈ 36.7 µM); for `Cc1cc(N/N=C/c2ccc(O)cc2O)nc(N2CCOCC2)n1`: > 49.4 µg/mL. Under `CCN(c1ccccc1)S(=O)(=O)c1cc(C(=O)NCC(c2ccco2)N2CCCCC2)ccc1C` (configuration not stated) stands 18.2 µg/mL (≈ 36.7 µM); under `CC(=O)Nc1ccc(NC(=O)COc2ccc(Cl)cc2Cl)cc1`, 1 µg/mL (≈ 2.83 µM). On to `CC(C)(C)CC(=O)Nc1cc2c3c(c1)CCC(=O)N3CCC2`, for which the solubility (kinetic) is 43.2 µg/mL (≈ 144 µM). The same measure for `O=C(/C=C/c1ccco1)Nc1nc(-c2ccc(F)c(F)c2)cs1`: < 0.4 µg/mL; for `Cc1ccc(N=Cc2ccc(N(C)C)cc2)cc1C`: 20.3 µg/mL (≈ 80.4 µM); for `COc1ccccc1P(=O)(c1ccccc1)c1ccccc1NC(C)=O` (configuration not stated): > 54.8 µg/mL. Under `C=CCn1c(O)c(C(C)=Nc2ccc(C(=O)O)cc2)c(=O)[nH]c1=O` stands > 49.4 µg/mL; under `CCc1ccc(OCC(=O)NC2CC(C)(C)NC(C)(C)C2)cc1`, 44 µg/mL (≈ 138 µM); under `COc1ccc(OC)c(/C=C/c2ccc3cccc(O)c3n2)c1`, < 0.7 µg/mL.

As for `O=C(CCCc1ccccc1)Nc1ccc(Br)cc1F`, the solubility (kinetic) was < 0.7 µg/mL. The same measure for `Cc1c(C(=O)N2CCCCC2)oc2ccccc12`: 32 µg/mL (≈ 132 µM); for `COc1ccc(S(=O)(=O)NCCc2ccncc2)cc1`: 40.7 µg/mL (≈ 139 µM).

`COC(=O)C1=C(NC(=O)c2ccccc2C)CCS1` came in with a kinetic solubility of 10 µg/mL (≈ 36.1 µM).

The term kinetic solubility denotes the concentration staying in solution when a stock, usually in DMSO, is diluted into the medium.
